Assay results reported in patent US12116371B2, “Substituted pyridines as irreversible inhibitors of menin-MLL interaction” (BIOMEA FUSION, INC., priority 2018, dated 2024).
Read-outs that look alike come from different tables or passages of the source.

Key:
Conditions in all cases: for IC50: Homo sapiens
[1] = tested on: NCI-H23 cells; assay: Proliferation assay, cells in adhesion; format: cell-based
[2] = tested on: MIAPaCa-2 cells; assay: Proliferation assay, cells in adhesion; format: cell-based
[3] = tested on: SK-LU-1/AMG510 cells; assay: Proliferation assay, cells in adhesion; format: cell-based
[4] = tested on: MOLM-13 cells; assay: Long term proliferation assay, Cell Titer-Glo read-out; format: cell-based, human
Protocol: (§1) Compounds of invention are tested in the 5 suspension lines by 14-day long-term proliferation assay.
(§2) The compound is tested in 10-pt dose titration (client will determine the starting concentration and the dilution scheme) and the final DMSO concentration is kept at 0.2%.
(§3) On Day 0, in a flat bottom 96-well plate, add 100 μL of cells per well at the densities optimized. Prepare compounds in DMSO at 500× final concentration. Dilute the compounds with DMSO at the dilution. Dilute the compounds in media at 3× final concentration. Add 50 μL of compound or DMSO at 3× final concentration to each well. Final volume in each well is 150 μL, and final concentration of DMSO is 0.2%. Also include 3 untreated control wells, by adding 50 μL of media alone. Incubate plates for 96 hours.
(§4) To do this take the total viable cell count calculated using step: • 1. Take the average of the replicates for each dose in order to be used in splitting the cells. • 2. Use a 96 well V-bottom plate to spin down the cells to remove old media and compound to split the cells. • 3. Based on the split ratio place the proper amount of media and cells into the V-bottom plate, and spin the plate at 1100 rpm for 5 minutes. • 4. Following the spin remove the media, careful not to disturb the cell pellet. Re-suspend pellet in 100 μL fresh media, and add to a new 96-well flat bottom plate. • 5. Add fresh compound, in the same manner as Step 3). • 6. Incubate plates for 72 hours. Repeat steps 5)-10) on Day 7. • 7. Incubate plates for 96 hours. Repeat Step 5)-10) on Day 11. • 8. Incubate 72 hours and repeat step 5) to take a final count. • 9. Data Analysis
(§5) To calculate growth for days 4, 7, 11, and 14: • 1. Calculate the split factor for day 4 to 7, day 7 to 11, and day 11-14. The split factor is the viable cells/mL on Day X (either 4, 7 or 11) divided by the density the cells are being split back to. • 2. For growth of cells from day 4 to 7, multiply the day 7 viable cells/mL density by the split factor from day 4. • 3. For growth of cells from day 7 to 11, multiply the day 11 viable cells/mL density by the days 4, and 7 split factors. • 4. For growth of cells from Day 11 to 14, multiply the Day 14 viable cells/mL density by the days 4, 7, and 11 split factors. • 5. Plot growth on semi-log chart (viable cells/mL on Y axis, in log, and days on X axis). • 6. The growth inhibition was calculated with the formula ((untreated cell numbers-treated cell numbers)/untreated cell)). • 7. Calculate the IC50 for each compound in each line using XLFit (Sigmoidal Dose-Response Model, y=(Bottom+((Top-Bottom)/(1+((IC50/×)^Hill))))).

[5] = tested on: MV4-11 cells; assay: as above; format: cell-based, human
Protocol: as §1, §2, §3, §4, §5

[6] = tested on: Panc 10.05 cells; assay: Proliferation assay, cells in adhesion; format: cell-based

- IC50 ([1]; NCI-H23, NCI-H23, T4, read-out: IC50): 0.35 µM
- IC50 ([1]; NCI-H23, NCI-H23, T4, read-out: pIC50 (converted)): 0.355 µM
- IC50 ([1]; NCI-H23, NCI-H23, T7, read-out: IC50): 0.2 µM
- IC50 ([1]; NCI-H23, NCI-H23, T7, read-out: pIC50 (converted)): 0.263 µM
- IC50 ([1]; NCI-H23, NCI-H23, T11, read-out: IC50): 0.19 µM
- IC50 ([1]; NCI-H23, NCI-H23, T11, read-out: pIC50 (converted)): 0.191 µM
- IC50 ([2]; MIA PaCa-2, MIAPaCa-2, T4, read-out: IC50): 0.27 µM
- IC50 ([2]; MIA PaCa-2, MIAPaCa-2, T4, read-out: pIC50 (converted)): 0.269 µM
- IC50 ([2]; MIA PaCa-2, MIAPaCa-2, T7, read-out: IC50): 0.23 µM
- IC50 ([2]; MIA PaCa-2, MIAPaCa-2, T7, read-out: pIC50 (converted)): 0.229 µM
- IC50 ([2]; MIA PaCa-2, MIAPaCa-2, T11, read-out: IC50): 0.22 µM
- IC50 ([2]; MIA PaCa-2, MIAPaCa-2, T11, read-out: pIC50 (converted)): 0.219 µM
- IC50 ([3]; SK-LU-1, SK-LU-1/AMG510, T4, read-out: IC50): 0.72 µM
- IC50 ([3]; SK-LU-1, SK-LU-1/AMG510, T7, read-out: IC50): 0.45 µM
- IC50 ([3]; SK-LU-1, SK-LU-1/AMG510, T7, read-out: pIC50 (converted)): 0.447 µM
- IC50 ([3]; SK-LU-1/AMG510, T11, read-out: IC50): 0.39 µM
- IC50 ([3]; SK-LU-1/AMG510, T11, read-out: pIC50 (converted)): 0.389 µM
- IC50 ([4]; MOLM-13, 96 h, MOLM-13, Day 4, Cell Titer-Glo, read-out: Day 4 IC50): 0.1 µM
- IC50 ([4]; MOLM-13, 168 h, MOLM-13, Day 7, Cell Titer-Glo, read-out: Day 7 IC50): 0.05 µM
- IC50 ([4]; MOLM-13, 264 h, MOLM-13, Day 11, Cell Titer-Glo, read-out: Day 11 IC50): 0.05 µM
- IC50 ([4]; MOLM-13, 336 h, MOLM-13, Day 14, Cell Titer-Glo, read-out: Day 14 IC50): 0.08 µM
- IC50 ([4]; MOLM-13, MOLM-13, T4, CellTiter-Glo, read-out: IC50): 0.1 µM
- IC50 ([4]; MOLM-13, MOLM-13, T4, CellTiter-Glo, read-out: pIC50 (converted)): 0.0977 µM
- IC50 ([4]; MOLM-13, MOLM-13, T11, CellTiter-Glo, read-out: IC50): 0.05 µM
- IC50 ([4]; MOLM-13, MOLM-13, T11, CellTiter-Glo, read-out: pIC50 (converted)): 0.0479 µM
- IC50 ([5]; MV4-11, 96 h, MV4-11, Day 4, Cell Titer-Glo, read-out: Day 4 IC50): 0.15 µM
- IC50 ([5]; MV4-11, 168 h, MV4-11, Day 7, Cell Titer-Glo, read-out: Day 7 IC50): 0.07 µM
- IC50 ([5]; MV4-11, 264 h, MV4-11, Day 11, Cell Titer-Glo, read-out: Day 11 IC50): 0.06 µM
- IC50 ([5]; MV4-11, 336 h, MV4-11, Day 14, Cell Titer-Glo, read-out: Day 14 IC50): 0.05 µM
- IC50 ([5]; MV4-11, MV4-11, T4, CellTiter-Glo, read-out: IC50): 0.15 µM
- IC50 ([5]; MV4-11, MV4-11, T4, CellTiter-Glo, read-out: pIC50 (converted)): 0.151 µM
- IC50 ([5]; MV4-11, MV4-11, T11, CellTiter-Glo, read-out: IC50): 0.06 µM
- IC50 ([5]; MV4-11, MV4-11, T11, CellTiter-Glo, read-out: pIC50 (converted)): 0.0562 µM
- IC50 ([6]; Panc1005, Panc 10.05, T4, read-out: IC50): 0.79 µM
- IC50 ([6]; Panc1005, Panc 10.05, T4, read-out: pIC50 (converted)): 0.794 µM
- IC50 ([6]; Panc1005, Panc 10.05, T7, read-out: IC50): 0.49 µM
- IC50 ([6]; Panc1005, Panc 10.05, T7, read-out: pIC50 (converted)): 0.49 µM
- IC50 ([6]; Panc1005, Panc 10.05, T11, read-out: IC50): 0.28 µM
- IC50 ([6]; Panc1005, Panc 10.05, T11, read-out: pIC50 (converted)): 0.282 µM
Structure (SMILES): C=CC(=O)NC1CCCN(Cc2ccnc(C(=O)Nc3ccc(-c4cc5c(N6CCOCC6)ncnc5[nH]4)cc3)c2)C1 (stereo not shown) [Compound 10]
- % max ([1]; NCI-H23, T4): 92%
- % max ([1]; NCI-H23, T7): 96%
- % max ([1]; NCI-H23, T11): 98%
- % max ([2]; MIAPaCa-2, T4): 96%
- % max ([2]; MIAPaCa-2, T7): 98%
- % max ([2]; MIAPaCa-2, T11): 99%
- % max ([3]; SK-LU-1/AMG510, T4): 83%
- % max ([3]; SK-LU-1/AMG510, T7): 95%
- % max ([3]; SK-LU-1/AMG510, T11): 98%
- % max ([4]; MOLM-13, T4, CellTiter-Glo): 98%
- % max ([4]; MOLM-13, T11, CellTiter-Glo): 99%
- % max ([5]; MV4-11, T4, CellTiter-Glo): 99%
- % max ([5]; MV4-11, T11, CellTiter-Glo): 99%
- % max ([6]; Panc 10.05, T4): 84%
- % max ([6]; Panc 10.05, T7): 97%
- % max ([6]; Panc 10.05, T11): 99%
